Source: publication PMC4912613, “A broad analysis of resistance development in the malaria parasite” (Nature Communications, 2016)

How the values were obtained:
[1] = tested on: W2; assay: Cross-resistance EC50 assay, W2 parent; format: cell-based, Plasmodium falciparum; conditions: for EC50: Plasmodium falciparum, 48 h, read-out: W2F6 (PARENT) Average EC50
Text: Multidrug resistance alleles, including mutations in P. falciparum chloroquine resistance transporter (pfcrt) and P. falciparum multi-drug resistance transporter 1 (pfmdr1) are very common in field isolates. Therefore, we sought to assess the degree to which pre-existing resistance alleles would contribute to a loss of potency for this diverse collection of small molecule compounds. Fifteen clones derived from three main parent lines were chosen to maximize diversity in mutated pathways and genetic backgrounds, thus representing the variety of resistance seen in the field: 3D7 (ref. [23]), W2 (ref. [24]) or Dd2 (ref. [25]). The 3D7 line originates from the clone of a Netherlands clinical isolate strain[23][26] and is generally considered to be drug sensitive, though it does convey resistance to sulfadoxine. Conversely, W2 (ref. [24], [27]) and Dd2 (ref. [25]) are multi-drug-resistant lines originating from the Indochina III/CDC isolate, which contain point mutations in pfcrt as well as amplifications in pfmdr1 and GTP cyclohydrolase.
(§1) To evaluate potential overlapping activity against known antimalarial drug targets, we performed dose-response studies with each compound against our assembled set of drug-resistant lines and their corresponding parents, in an asexual blood stage proliferation assay (Table 1). Comparisons were made to the drug-sensitive strain 3D7 when a parent was unavailable (TM90C2A, W2 and Dd2). As laboratories conducted EC50 assays with different strains and protocols, all comparisons were made between assays from the same laboratory and under the same assay conditions. Compounds displaying >5-fold EC50 shifts relative to the parent or sensitive strain were flagged as having potentially non-novel targets. Average fold shifts per strain ranged from 0.82 to 2.34, with a median of 1.23 indicating there was not common resistance to any one resistant clone. No resistance patterns were observed when classifying the compounds based on chemical structure, but this was not surprising given the diversity of compounds chosen. On the other hand, given that these confirmed compounds were derived from larger unconfirmed hit lists to which some filtration criteria may have been applied (for example, elimination of obvious dihydrofolate reductase inhibitors[32]), some[10][11][12][13] pre-existing bias may exist in the set.
The 48-h assay was carried out in a 96-well format following standard methods using the ^3H-hypoxanthine incorporation assay. The raw EC50 values corresponding to this assay can be found in Supplementary Data 3. Briefly, this assay relies on the parasite incorporation of labelled hypoxanthine that is proportional to P. falciparum growth. A culture of parasitized RBCs (0.5% parasitemia with a percentage of ring stage higher than 70% of total parasitemia, 2.0% haematocrit) in RPMI-1640, […] and 5 μM hypoxanthine was exposed to drug serial dilutions. Plates were incubated for 24 h at 37 °C, 5% CO2, 5% O2 and 90% N2. After 24 h of incubation, ^3H-hypoxanthine was added and plates were incubated for an additional 24-h period. After that, parasites were harvested on a glass fibre filter using a TOMTEC Cell Harvester 96. Filters were dried and melt-on scintillator sheets were used to determine the incorporation of ^3H-hypoxanthine. Radioactivity was measured using a microbeta counter. Data were normalized using the incorporation of the positive (parasitized RBCs without drug) and negative (same culture with artesunate at 2 μM) controls. All assays were conducted in triplicate using three independently grown cultures, and EC50 values were determined using the XLfit add-in module for Excel (version 2.3.1) from Grafit (version 5.3.1.3), where parameter h is the assay hill slope, x is the compound concentration and y is the inhibition of growth effect. The XLfit equation is: […]
Alternatively, a SYBR Green-based proliferation approach was used for the 72-h assay, as previously described. […]

[2] = tested on: PfCRT-Q352R (parent Dd2); assay: Cross-resistance EC50 assay, PfCRT-Q352R; format: cell-based; conditions: Plasmodium falciparum, DD2, 72 h, read-out: PfCRT:Q352R (Dd2 Parent) Average EC50
Text: as §1, with “set. […]” for “set.”
(§2) Alternatively, a SYBR Green-based proliferation approach was used for the 72-h assay, as previously described. Briefly, a culture of either synchronized or asynchronous parasitized RBCs (0.3% parasitemia and 4% haematocrit) in screening medium (identical to supplemented medium above except no serum was added) was exposed to serial drug dilutions. Plates were incubated at 37 °C and gassed with 93% N2, 4% CO2 and 3% O2 for 72 h. Following incubation, 10 × SYBR Green I (Invitrogen; supplied in 10,000 × concentration) in lysis buffer ([…], 5 mM EDTA, 0.16% Saponin wt per vol and 1.6% Triton X vol per vol) was added to the wells and the plates were incubated overnight at room temperature before plate reading. EC50 assays were repeated three times, taking the average EC50 value from each assay set, and removing any outliers using a single iteration of Grubbs' test, eliminating values with z-scores above the critical z-value (α=0.05). The raw EC50 values for synchronized parasites assayed in a 384-well format are listed in Supplementary Data 4. The raw EC50 values for asynchronous parasites assayed in a 96 or 1536-well format are listed in Supplementary Data 5.
(§3) EC50 values for each strain were compared with those of the corresponding parent strain to determine fold-shift changes and identify resistance. To minimize the cause variance between assays, all comparisons were conducted between strains assayed under identical conditions. A one-way ANOVA followed by a Dunnet's post-test was conducted in GraphPad Prism to identify significant changes between the parent and resistant strain.

[3] = tested on: hsp90 (D88Y, parent Dd2); assay: Cross-resistance EC50 assay, hsp90; format: cell-based; conditions: Plasmodium falciparum, SYBR green 72 hour assay, synchronized parasites, 384-well format
Text: as §1, with “set. […]” for “set.”
as §2, §3

[4] = tested on: NITD609-R2 (PfATP4 T418N and P990R, parent Dd2); assay: Cross-resistance EC50 assay, NITD609-R2; format: cell-based; conditions: Plasmodium falciparum, SYBR green 72 hour assay, asynchronized parasites, 96-well or 1536-well format
Text: as §1, with “set. […]” for “set.”
as §2, §3

SMILES	EC50 [1]	EC50 [2]	EC50 ([3]; strain HSP90 (Dd2 parent))	EC50 [4]	potency against W2 strains ([1]; compared with 3D7)	EC50 fold-shift, W2 compared with 3D7 ([1]; loss of efficacy)	EC50 ([3]; DD2, HSP90 strain)
COc1cc(-c2nc(-c3ccccc3)c(-c3ccccc3)[nH]2)cc(OC)c1O [MMV020750]	1870 nM	725 nM	700 nM	1.22 µM			
CCCCCCCN(Cc1ccc(OC(C)(C)C(=O)OCC)cc1)C(=O)Nc1ccc(Cl)cc1OCC [MMV021735]	361 nM	259 nM	275 nM	0.773 µM			
CN(C)Cc1ccc(-c2cc3c(-c4ccc(CN(C)C)cc4)ccnc3[nH]2)cc1.O=C(O)C(F)(F)F [MMV022224]	406 nM	320 nM	346 nM	0.406 µM			
Nc1ncc(-c2cn[nH]c2)cc1-c1nc2ccc(F)cc2[nH]1 [MMV023367]	244 nM	421 nM	491 nM	1.6 µM			
CN(C)S(=O)(=O)c1cc(-c2ccc3nccc(-c4cccc(S(N)(=O)=O)c4)c3c2)cnc1N [MMV024038]	327 nM	107 nM	128 nM	0.958 µM			
Cc1ccc(S(=O)(=O)n2cc(-c3ccnc(N)c3)c3cc(Br)cnc32)cc1 [MMV024114]	1050 nM	499 nM	831 nM	1.86 µM			
CNCc1ccc2nc(-c3coc(Cc4cc(Cl)ccc4OCC(C)C)n3)[nH]c2c1.Cl.Cl [MMV026596]	645 nM	451 nM	373 nM	0.206 µM			
COc1cc(-c2nc(-c3ccccc3)c(-c3ccccc3)[nH]2)ccc1OCCN(C)C [MMV027496]	272 nM	211 nM	312 nM	0.755 µM			
Cc1nc2ccc3ccc(CNc4ccc(C(=O)CC(CCC(=O)O)C(=O)O)cc4)cc3c2c(=O)[nH]1.Cl (centres unmarked) [MMV027634]	62 nM	38 nM	39 nM	0.14 µM			
CC(C)c1cccc(C(NC(=O)C2Cc3ccccc3CN2C(=O)c2cccc(N3CCOCC3)c2)C2CCCC2)c1 (centres unmarked) [MMV028038]	489 nM	314 nM	432 nM	0.612 µM			
CN(C)CCCN(C)C(=O)C1Cc2cc(-c3ccccc3)ccc2N1S(=O)(=O)c1ccccc1 (centres unmarked) [MMV028895]	153 nM	240 nM	332 nM	2.17 µM	maintained potency		
O=C(NCC(CCCN1CCC(c2c[nH]c3ccccc23)CC1)c1ccccc1)Nc1ccc(Cl)c(Cl)c1 (centres unmarked) [MMV029272]	836 nM	267 nM	710 nM	0.152 µM			
CC(C)(C)OC(=O)N1CCN(c2ccccc2NC(=O)c2cccc(C(F)(F)F)c2Oc2ccc(F)cc2)CC1 [MMV030666]	298 nM	315 nM	321 nM	0.221 µM			
CC(NCc1ccccc1)c1cc(Cl)ccc1O (centres unmarked) [MMV665789]	147 nM	571 nM	557 nM	0.261 µM			
FC(F)(F)c1cccc(Nc2nc3ccccc3nc2Nc2cccc(C(F)(F)F)c2)c1 [MMV665794]	181 nM	116 nM	140 nM	0.321 µM			
O=C(Nc1ccc(Cl)c(Cl)c1)Nc1ccc(Cl)c(Cl)c1 [MMV665852]	1590 nM	905 nM	893 nM	1.75 µM			
OC(CNC1CCCCC1)Cn1c2ccc(I)cc2c2cc(I)ccc21 (centres unmarked) [MMV665882]	26 nM	47 nM	25 nM	0.046 µM			
O=C(Nc1ccccc1O)c1ccc(Oc2cccc(C(=O)Nc3ccccc3O)c2)cc1 [MMV665888]	515 nM	683 nM	843 nM	0.812 µM			
COc1ccc(C(=O)C2CC2c2ccc(Cl)cc2)cc1 (centres unmarked) [MMV665924]	1380 nM	1400 nM	1680 nM	1.69 µM			
CCC(C)NCC(O)(c1ccc(Cl)cc1)c1ccc(Cl)cc1 (centres unmarked) [MMV665928]	137 nM	486 nM	501 nM	0.18 µM			
O=C(Nc1ccsc1C(=O)NC1CCCCC1)c1ccc(F)cc1 [MMV665939]	9880 nM	1140 nM	2180 nM	1.4 µM		9.5 ×	
Nc1ccc(-c2nc3cc(Cc4ccc5[nH]c(-c6ccc(N)cc6)nc5c4)ccc3[nH]2)cc1 [MMV665943]	191 nM	407 nM	425 nM	0.334 µM			
O=C(NC(c1ccccc1)c1ccc2cccnc2c1O)c1ccccc1 (centres unmarked) [MMV666080]	3160 nM	545 nM	645 nM	1.19 µM			
COc1cc(C(=O)ON=C(N)Cc2cccc3ccccc23)cc(OC)c1OC [MMV666687]	463 nM	326 nM	283 nM	0.535 µM			
c1cncc(-c2cc(N3CCC(CN4CCOCC4)CC3)nc(-c3ccncc3)n2)c1 [MMV668399]	164 nM	70 nM	90 nM	0.652 µM			
COc1ccc2c3c([nH]c2c1)[C@H](CO)N(C(C)=O)CC31CCN(C(=O)Nc2ccccc2F)CC1 [MMV673482]	176 nM	71 nM		0.007 µM			94 nM
CN(C)CCCNCc1ccc(-c2ccc(Cl)c(Cl)c2)o1 [MMV673964]	561 nM	552 nM		0.756 µM			322 nM
